{"source": "paper PMC9814590", "about": "“Precise heteroatom doping determines aqueous solubility and self-assembly behaviors for polycyclic aromatic skeletons” (Communications Chemistry, 2022)", "format_in_all_cases": "physicochemical", "key": {"[1]": {"assay": "Water-contact angle test", "description": "(§1) With the 12 combinatorial molecules in hand, we initially examined their hydrophilicity and aqueous solubility. The water-contact angle test gave a clear hydrophilic assessment for these molecules (Table 1 and Supplementary Table 1). The conventional shake-flask method was employed to obtain the thermodynamic aqueous solubility data[29]. […]. In pursuit of both improving the hydrophilicity and aqueous solubility, we planned to introduce dual N/O heteroatoms to C1 skeleton as listed in group 2. […]. The turning point comes to C9 that doping two N atoms on the phenanthrene subcomponent besides the oxazole part. A water contact angle of 0° indicates the high hydrophilicity of C9. […].\nSupplementary Table 1. Collected water contact angles for C2 – C12 […]"}, "[2]": {"assay": "Shake-flask thermodynamic aqueous solubility (1H NMR quantification)", "settings": "for solubility at 24 h: water, thermodynamic from solid, D2O, room temperature", "description": "as §1\n1.3 Determination of solubility-related parameters\n(1) Measurement of aqueous solubility\nWe applied the classic shake-flask method to determine the solubility data of C2–C12 in water. Typically, an excess amount of C2 was added to 1.0 mL of D2O, and the mixture was stirred at room temperature for 24 h. After that, the phase separation of saturated solution was finished through centrifugation. 1H NMR technology was applied to quantitatively analysis the concentration of solute using tetrahydrofuran as internal standard. Actually, we didn’t synthesize C1 to obtain its solubility data from experimental method because it’s obvious that this compound would be insoluble in water from reasonable judgement. Alternatively, due to its high hydrophobicity and measured water solubility data from C2–C8 counterpart, we can estimate this value must be at least lower than 0.1 mg / mL as well. […]"}, "[3]": {"assay": "Hansen solubility parameters (HSP) from rated solvent library, optimized in HSPiP; Ra and RED versus water", "settings": "for Water2 Ra: distance to water HSP of dense condition (18.1, 17.1, 16.9); for Water1 Ra: distance to water HSP of dilute condition (15.1, 20.4, 16.5); for δD (dispersion solubility parameter) / δH (hydrogen bonding solubility parameter) / δP (polar solubility parameter) / R0 (intrinsic distance parameter): experimentally rated solvent library, HSPiP; for R0 (intrinsic distance parameter): unit assumed; for Water1 RED (Ra/R0): water HSP of dilute condition (15.1, 20.4, 16.5)", "description": "To figure out why the doped N/O heteroatoms on the aromatic skeletons can both influence their hydrophilicity and aqueous solubility, we employed the Hansen solubility parameters (HSP) to interpret this phenomenon. This method developed by Charles Hansen et al.[30] has found broad use both in academia and industry for predicting the compatibility or affinity between two substances[31]–[34]. The key elements of HSP approach are three partial solubility parameters consisting of δD, δP, and δH, in which δD represents the dispersion solubility parameter, δP represents the polar solubility parameter, and δH represents the hydrogen bonding solubility parameter, respectively.\nThe three partial parameters define a three-dimensional coordinate for substances in a virtual solubility space (Hanse space). In principle, the closer the two coordinates of HSP are, the more likely the substances will dissolve in each other, which is consistent with the notion of “like dissolves like” rule. To better describe the degree of closeness, another solubility parameter “distance” (Ra) is introduced as follows:1 Ra2=4(δD2−δD1)^2+(δP2−δP1)^2+(δH2−δH1)^2 […]\nMeanwhile, each substance has an intrinsic distance parameter R0, together with HSP as a center point that would define a solubility sphere in Hansen space. If the HSP coordinate of one substance is located inside the sphere of another substance, it indicates a high affinity between them. For solute and solvent cases, a dissolution process may happen. Otherwise, a low affinity is inferred if one substance is excluded from the sphere of another.\nThe total HSP data set of C1-C12 was experimentally tested and optimized from a combination of solvents library and listed in Table 1 (Supplementary Methods 1.3, Supplementary Fig. 1). […] For the unique H2O, there are three sets of HSP for different conditions. The first is the HSP of single-molecule (pure) water (15.5, 16.0, 42.3), in which the δH is more salient than δD and δP, it well explains the strong hydrogen bonding interactions between water molecules. However, its use in the prediction of solubility in water is not deemed appropriate in most cases. The second and third sets of HSP for water are those derived from solubility data and should be chosen case by case. The second set of HSP (15.1, 20.4, 16.5) was derived from experimental data set exceeding 1% soluble compounds in water, which may be appropriate for the diluted solute case (denoted as Water1). The third set of HSP (18.1, 17.1, 16.9) was derived from experimental data set of complete miscible compounds with water, which may be appropriate for the dense solute case (denoted as Water2).\n1.3 Determination of solubility-related parameters […]\n(2) Determination of Hansen solubility parameters (HSP)3\nA collection of solvents was used to estimate the HSPs values of C2–C12, which includes dichloromethane, chloroform, toluene, diethyl ether, hexane, dioxane, pyridine, tetrahydrofuran, dimethyl sulfoxide, N, N-dimethyl formamide, acetone, acetonitrile, methanol and ethanol. If the specific solvent (0.5 mL) can dissolve at least 1.0 mg of certain solute would be rated as good solvent, otherwise as bad solvent. For C1, it’s expected that this molecule can only dissolve in nonpolar solvents (recrystallized from CCl4 according to literature report). We […]\nmethanol, ethanol and water would be bad solvents. These rated solvent s datasets for C1–C12 were imported to HSPiP software that developed by Dr. Hansen, Abbott and Hiroshi to optimize and obtain three partial HSPs values."}, "[4]": {"assay": "Apparent association constants by 1H NMR shift analysis (dimeric model)", "description": "As is known, high concentration as a driving force to promote the molecular aggregation in solution is ubiquitous and well recognized[37],[38]. To compare the high concentration induced aggregation phenomenon with our case, we measured their apparent association constants (Ka) by ^1H NMR shift analysis after simplifying the aggregates to a dimeric model[39] (Supplementary Figs. 17–28). As listed in Fig. 3b, C10-C12 in chloroform display relatively weak association ability induced by high concentration factor. […] Meanwhile, the ^13C NMR spectra gave more informative details about C10-C12 in different existing states (Fig. 3c, Supplementary Figs. 13 and 14). […] In comparison, these signals became broadened and moved to upfield with a maximal 3.19 ppm shift in D2O conditions, which was almost in consistent with the solid-state ^13C magic-angle spinning (MAS) NMR spectrum despite its much broader signature. Moreover, the luminescent emissions of C10-C12 in various solvent ratios and solid-state were also screened (Fig. 3d, Supplementary Figs. 33 and 34). […] Unexpectedly, the maximal emissions in water are close to the solid state of C10-C12 (e.g., 472 nm in water versus 486 nm in solid for C10), indicative of a homologous excited-state energy transfer pathway."}}}
{"molecule": "c1ccc(-c2nc3c4cccnc4c4ncccc4c3o2)cc1", "note": "[C9]", "values": [{"measurement": "Water contact angle", "setting": "[1]; C2-C12", "value": 0, "unit": "°"}, {"measurement": "Aqueous solubility", "setting": "[2]", "value": "slightly soluble"}, {"measurement": "solubility at 24 h", "setting": "[2]", "value": 900, "unit": "µg/mL"}, {"measurement": "Water2 Ra", "setting": "[3]", "value": 5.1, "unit": "MPa^0.5"}, {"measurement": "Water1 Ra", "setting": "[3]", "value": 10.8, "unit": "MPa^0.5"}, {"measurement": "δD (dispersion solubility parameter)", "setting": "[3]", "value": "18.6 (MPa)^0.5"}, {"measurement": "δH (hydrogen bonding solubility parameter)", "setting": "[3]", "value": "15.5 (MPa)^0.5"}, {"measurement": "δP (polar solubility parameter)", "setting": "[3]", "value": "12.3 (MPa)^0.5"}, {"measurement": "R0 (intrinsic distance parameter)", "setting": "[3]", "value": 10, "unit": "MPa^0.5"}, {"measurement": "Water1 RED (Ra/R0)", "setting": "[3]", "value": 1.1}]}
{"molecule": "c1cncc(-c2nc3c4cccnc4c4ncccc4c3[nH]2)c1", "note": "[C5]", "values": [{"measurement": "Water contact angle", "setting": "[1]; C2-C12", "value": 0, "unit": "°"}, {"measurement": "solubility at 24 h", "setting": "[2]", "value": "< 100", "unit": "µg/mL"}, {"measurement": "Water2 Ra", "setting": "[3]", "value": 3.7, "unit": "MPa^0.5"}, {"measurement": "Water1 Ra", "setting": "[3]", "value": 5.3, "unit": "MPa^0.5"}, {"measurement": "δD (dispersion solubility parameter)", "setting": "[3]", "value": "16.4 (MPa)^0.5"}, {"measurement": "δH (hydrogen bonding solubility parameter)", "setting": "[3]", "value": "16.5 (MPa)^0.5"}, {"measurement": "δP (polar solubility parameter)", "setting": "[3]", "value": "15.8 (MPa)^0.5"}, {"measurement": "R0 (intrinsic distance parameter)", "setting": "[3]", "value": 7, "unit": "MPa^0.5"}]}
{"molecule": "c1ccc(-c2nc3c4ccccc4c4ccccc4c3[nH]2)cc1", "note": "[C2]", "values": [{"measurement": "Water contact angle", "setting": "[1]; C2-C12", "value": 140.6, "unit": "°"}, {"measurement": "solubility at 24 h", "setting": "[2]", "value": "< 100", "unit": "µg/mL"}, {"measurement": "Water2 Ra", "setting": "[3]", "value": 9.9, "unit": "MPa^0.5"}, {"measurement": "Water1 Ra", "setting": "[3]", "value": 13.3, "unit": "MPa^0.5"}, {"measurement": "δD (dispersion solubility parameter)", "setting": "[3]", "value": "18.5 (MPa)^0.5"}, {"measurement": "δH (hydrogen bonding solubility parameter)", "setting": "[3]", "value": "8.1 (MPa)^0.5"}, {"measurement": "δP (polar solubility parameter)", "setting": "[3]", "value": "12.6 (MPa)^0.5"}, {"measurement": "R0 (intrinsic distance parameter)", "setting": "[3]", "value": 4.5, "unit": "MPa^0.5"}]}
{"molecule": "c1cnc2c(c1)c1nc(-c3ccncc3)oc1c1cccnc12", "note": "[C10]", "values": [{"measurement": "Water contact angle", "setting": "[1]; C2-C12", "value": 0, "unit": "°"}, {"measurement": "solubility at 24 h", "setting": "[2]", "value": 40000, "unit": "µg/mL"}, {"measurement": "Ka (CHCl3), apparent association constant", "setting": "[4]; CHCl3, dimeric model", "value": "8(2) M^-1"}, {"measurement": "Ka (MeOH-H2O), apparent association constant", "setting": "[4]; MeOH-H2O (legend: H2O), dimeric model", "value": "772(47) M^-1"}, {"measurement": "Water2 Ra", "setting": "[3]", "value": 10.8, "unit": "MPa^0.5"}, {"measurement": "Water1 Ra", "setting": "[3]", "value": 15, "unit": "MPa^0.5"}, {"measurement": "δD (dispersion solubility parameter)", "setting": "[3]", "value": "17.7 (MPa)^0.5"}, {"measurement": "δH (hydrogen bonding solubility parameter)", "setting": "[3]", "value": "15.8 (MPa)^0.5"}, {"measurement": "δP (polar solubility parameter)", "setting": "[3]", "value": "6.3 (MPa)^0.5"}, {"measurement": "R0 (intrinsic distance parameter)", "setting": "[3]", "value": 10.7, "unit": "MPa^0.5"}, {"measurement": "Water1 RED (Ra/R0)", "setting": "[3]", "value": 1.4}]}
{"molecule": "c1ccc(-c2nc3c4ccccc4c4ccccc4c3o2)nc1", "note": "[C8]", "values": [{"measurement": "Water contact angle", "setting": "[1]; C2-C12", "value": 128.6, "unit": "°"}, {"measurement": "Aqueous solubility", "setting": "[2]", "value": "barely soluble in water"}, {"measurement": "solubility at 24 h", "setting": "[2]", "value": "< 100", "unit": "µg/mL"}, {"measurement": "Water2 Ra", "setting": "[3]", "value": 13.8, "unit": "MPa^0.5"}, {"measurement": "Water1 Ra", "setting": "[3]", "value": 18.1, "unit": "MPa^0.5"}, {"measurement": "δD (dispersion solubility parameter)", "setting": "[3]", "value": "19.4 (MPa)^0.5"}, {"measurement": "δH (hydrogen bonding solubility parameter)", "setting": "[3]", "value": "7.8 (MPa)^0.5"}, {"measurement": "δP (polar solubility parameter)", "setting": "[3]", "value": "7.0 (MPa)^0.5"}, {"measurement": "R0 (intrinsic distance parameter)", "setting": "[3]", "value": 8.8, "unit": "MPa^0.5"}, {"measurement": "Water2 RED (Ra/R0)", "setting": "[3]; water HSP of dense condition (18.1, 17.1, 16.9)", "value": 1.6}, {"measurement": "Water1 RED (Ra/R0)", "setting": "[3]", "value": 2.1}]}
{"molecule": "C1=C(c2ccccc2)Cc2c1c1ccccc1c1ccccc21", "note": "[C1, 2-phenyl-1H-cyclophen[l]phenanthrene, reference compound]", "values": [{"measurement": "Water contact angle", "setting": "[1]; C1 not synthesized, deduced and estimated by comparison with C2", "value": ">140", "unit": "°"}, {"measurement": "Water2 Ra", "setting": "[3]", "value": 20.8, "unit": "MPa^0.5"}, {"measurement": "Water1 Ra", "setting": "[3]", "value": 23.8, "unit": "MPa^0.5"}]}
